Measurements taken from PubChem BioAssay (NCI).
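Grown in 96-well plates, cells were treated for 48 hours with each compound at five concentrations. Insufficient inhibition: endpoint recorded as highest concentration tested. GI50 is the concentration that inhibits growth by half. TGI: total growth inhibition.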

Experiments:
Test in all cases: DTP human tumour cell line panel, 48 h
A498 renal = tested on: A498 renal
CAKI-1 renal = tested on: CAKI-1 renal
COLO 205 colon = tested on: COLO 205 colon
HCC-2998 colon = tested on: HCC-2998 colon
IGROV1 ovarian = tested on: IGROV1 ovarian
K-562 leukemia = tested on: K-562 leukemia
LOX IMVI melanoma = tested on: LOX IMVI melanoma
MDA-MB-435 = tested on: MDA-MB-435
RPMI-8226 leukemia = tested on: RPMI-8226 leukemia
SK-MEL-2 melanoma = tested on: SK-MEL-2 melanoma

Row | SMILES | TGI (A498 renal) | TGI (CAKI-1 renal) | TGI (COLO 205 colon) | TGI (HCC-2998 colon) | TGI (IGROV1 ovarian) | TGI (K-562 leukemia) | TGI (LOX IMVI melanoma) | TGI (MDA-MB-435) | TGI (RPMI-8226 leukemia) | TGI (SK-MEL-2 melanoma) | GI50 (CAKI-1 renal) | GI50 (IGROV1 ovarian) | GI50 (K-562 leukemia) | GI50 (LOX IMVI melanoma) | GI50 (MDA-MB-435) | GI50 (RPMI-8226 leukemia) | GI50 (A498 renal) | GI50 (COLO 205 colon) | GI50 (HCC-2998 colon) | GI50 (SK-MEL-2 melanoma)
1 | Cc1ccc2c(=O)cc(-c3ccc(Cl)s3)[nH]c2n1 | > 100 µM | > 100 µM | 28.8 µM | 25.9 µM | > 100 µM | > 100 µM | > 100 µM | > 100 µM | 4.08 µM | > 100 µM |  |  |  |  |  |  |  |  |  | 
2 | NS(=O)(=O)c1ccc(/C=C/c2ccc(F)cc2)cc1 | > 100 µM | > 100 µM | > 100 µM | > 100 µM | 61.9 µM | > 100 µM | > 100 µM | > 100 µM | > 100 µM | 86.7 µM | 36.3 µM | 20.9 µM | 14.9 µM | 26.7 µM | 27 µM | 42.3 µM |  |  |  | 
3 | CCNC(=S)N=Nc1c(O)[nH]c2ccc([N+](=O)[O-])cc12 | 89.3 µM | > 100 µM | > 100 µM | 72.8 µM | > 100 µM | > 100 µM | > 100 µM | > 100 µM | > 100 µM | > 100 µM |  |  |  |  |  |  |  |  |  | 
4 | COC(OC)[C@@H]1OC[C@H](n2cnc3c(N)ncnc32)[C@H]1O | > 100 µM | > 100 µM | > 100 µM | > 100 µM | > 100 µM | > 100 µM | > 100 µM | > 100 µM | > 100 µM | > 100 µM |  |  |  |  |  |  |  |  |  | 
5 | O=C1C[C@@H](C(=O)OCc2ccccc2)NC(=O)C[C@@H](C(=O)OCc2ccccc2)NC(=O)C[C@@H](C(=O)OCc2ccccc2)N1 | > 95.1 µM | > 100 µM | > 100 µM | > 100 µM | > 100 µM | 21.8 µM | > 100 µM | > 100 µM | > 100 µM | 66.1 µM |  |  |  |  |  |  |  |  |  | 
6 | CC(NC(=O)C(NC(=O)CNC(=O)OC(C)(C)C)C(C)C)C(=O)Oc1c(Cl)c(Cl)c(Cl)c(Cl)c1Cl (stereo unspecified) | 45 µM | 39.3 µM | 43.2 µM | 39.4 µM | 46.6 µM | > 100 µM | 32.5 µM | 61.3 µM | > 100 µM | 30.3 µM |  |  |  |  |  |  |  |  |  | 
7 | Cc1ccc(/C(O)=C/c2nc3ccccc3sc2=O)c(C)c1 | > 100 µM | > 100 µM | > 100 µM | > 100 µM | > 100 µM | > 100 µM | > 100 µM | > 100 µM | 77.6 µM | > 100 µM |  |  |  |  |  |  |  |  |  | 
8 | O=[N+]([O-])c1ccc2sc(C=Nc3cnccn3)cc2c1 | 86 µM | > 100 µM | > 100 µM | 40.7 µM | > 100 µM | 88.6 µM | 60.6 µM | > 100 µM | 52.9 µM | 75.2 µM |  |  |  |  |  |  |  |  |  | 
9 | OC1(c2ccccc2)CCN(Cc2c[nH]c3ccccc23)CC1 | > 100 µM | > 100 µM | 31.7 µM | 31.6 µM | > 100 µM | > 100 µM | > 100 µM | > 100 µM | > 100 µM | 36.1 µM |  |  |  |  |  |  |  |  |  | 
10 | Cc1cc(F)ccc1S(=O)(=O)Nc1cc(-c2c(O)ccc3ccccc23)c(O)c2ccccc12 | 9.75 µM | 10.9 µM | 4.94 µM | 4.38 µM | 8.68 µM | 13 µM | 10.8 µM | 10.9 µM | 24 µM | 5.73 µM | 2.5 µM | 2.89 µM | 3.56 µM | 2.91 µM | 3.18 µM | 2.89 µM | 3 µM | 2.08 µM | 2.17 µM | 2 µM
11 | COc1ccc(C2=Nc3cc(C)c(C)cc3NC(c3ccccc3)C2)cc1 (stereo unspecified) | > 100 µM | > 100 µM | 37.6 µM | > 100 µM | > 100 µM | > 100 µM | > 100 µM | > 100 µM | > 100 µM | > 100 µM |  |  |  |  |  |  |  |  |  | 
12 | COc1cccc(CCN2CCN(CCCc3ccccc3)CC2)c1 | > 100 µM | > 100 µM | 45.2 µM | > 100 µM | > 100 µM | > 100 µM | > 100 µM | > 100 µM | > 100 µM | > 100 µM |  |  |  |  |  |  |  |  |  | 
13 | OCC(O)C(O)C(O)C(O)c1nc2ccc(Cl)cc2[nH]1 (stereo unspecified) | > 100 µM | > 100 µM | > 100 µM | > 100 µM | > 100 µM | > 100 µM | > 100 µM | > 100 µM | > 100 µM | > 100 µM |  |  |  |  |  |  |  |  |  | 
14 | COC(=O)C1(Cc2ccc3c(c2)CCC3)Cc2ccccc2C1O (stereo unspecified) | 33.7 µM | 52.3 µM | 33.8 µM | 31.9 µM | 51.7 µM | 40.5 µM | 34 µM | 36.7 µM | 80.4 µM | 27.4 µM |  |  |  |  |  |  |  |  |  | 
15 | C[N+](C)(C)c1ccc(C(N)C(=O)O)cc1 (stereo unspecified) | > 100 µM | > 100 µM | > 100 µM | > 100 µM | > 100 µM | > 100 µM | > 100 µM | > 100 µM | > 100 µM | > 100 µM |  |  |  |  |  |  |  |  |  | 
16 | NC(=O)NNc1nc(-c2ccccc2)cs1 | > 100 µM | > 100 µM | > 100 µM | > 100 µM | > 100 µM | > 100 µM | > 100 µM | > 100 µM | > 100 µM | > 100 µM |  |  |  |  |  |  |  |  |  | 
17 | CC(C)CNc1nc2ncnc(N)c2[nH]1 | > 100 µM | > 100 µM | > 100 µM | > 100 µM | > 100 µM | > 100 µM | > 100 µM | > 100 µM | > 100 µM | > 100 µM |  |  |  |  |  |  |  |  |  | 
